The target in one experiment is T1, VEGFR2 (Homo sapiens, UniProt P35968).
T1 construct: host or cells: HUVEC
Briefly: VEGFR2 Phospho ELISA Assay. In kind it is cell-based. The conditions noted are these: HUVEC, treated for 1 hour, VEGF stimulated; phospho VEGFR2 relative to Total VEGFR2. (ELISA stands for enzyme-linked immunosorbent assay.)

The next experiment deals with T2, FAK (Homo sapiens, UniProt Q05397).
T2 construct: endogenous in cells; host or cells: MDA-231-LNA
In words: P397Y-FAK Inhibition MSD Platform Cellular Biomarker Assay. It is filed as cell-based. Particulars: MDA-231-LNA cells, treated for 1 hour; pFAK-397 levels.

A further experiment concerns the target VEGFR3 (Homo sapiens, UniProt P35916). Briefly: VEGFR3 Phospho ELISA Assay. The conditions noted are these: HMVEC-dLyAD cells, treated for 1 hour, VEGFC stimulated; phospho VEGFR3 relative to Total VEGFR3. It is filed as cell-based.
Experiment [1] concerns the target VEGFR3 cytoplasmic domain (Homo sapiens, UniProt P35916). In words: VEGFR3 Biochemical Assay (AlphaScreen). The conditions noted are these: GST-fusion enzyme, 500 μM ATP, 90 minutes at 30 degree Celsius (modified form in some cases: Hexa-His-fusion enzyme, 1 μM ATP); read-out: IC50. Background: In Alpha technology, singlet oxygen from a donor bead excites a nearby acceptor bead.

The structures appear in SMILES notation.

The text below walks through data of patent publication US20160009686A1, “VEGFR3 INHIBITORS” (CANCER THERAPEUTICS CRC PTY LIMITED, priority 2012, published 2016).

Broadly, the IC50 is the concentration that inhibits the measured activity by half.

Sequence of VEGFR3 cytoplasmic domain (P35916 798-1298 isoform P35916-1): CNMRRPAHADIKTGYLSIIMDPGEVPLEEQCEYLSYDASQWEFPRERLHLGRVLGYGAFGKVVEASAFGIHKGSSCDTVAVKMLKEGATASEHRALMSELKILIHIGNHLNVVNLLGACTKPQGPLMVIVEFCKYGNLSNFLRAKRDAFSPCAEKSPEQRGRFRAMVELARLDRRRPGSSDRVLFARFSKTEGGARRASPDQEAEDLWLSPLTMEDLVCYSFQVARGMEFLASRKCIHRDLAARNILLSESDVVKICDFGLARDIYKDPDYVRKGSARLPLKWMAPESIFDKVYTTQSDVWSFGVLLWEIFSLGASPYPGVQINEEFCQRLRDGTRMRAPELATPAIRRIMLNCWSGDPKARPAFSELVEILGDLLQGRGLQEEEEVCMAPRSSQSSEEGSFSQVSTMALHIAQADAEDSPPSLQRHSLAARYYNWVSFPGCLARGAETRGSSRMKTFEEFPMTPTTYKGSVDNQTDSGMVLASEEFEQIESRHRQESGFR
Sequence of VEGFR3 (P35916 25-1363): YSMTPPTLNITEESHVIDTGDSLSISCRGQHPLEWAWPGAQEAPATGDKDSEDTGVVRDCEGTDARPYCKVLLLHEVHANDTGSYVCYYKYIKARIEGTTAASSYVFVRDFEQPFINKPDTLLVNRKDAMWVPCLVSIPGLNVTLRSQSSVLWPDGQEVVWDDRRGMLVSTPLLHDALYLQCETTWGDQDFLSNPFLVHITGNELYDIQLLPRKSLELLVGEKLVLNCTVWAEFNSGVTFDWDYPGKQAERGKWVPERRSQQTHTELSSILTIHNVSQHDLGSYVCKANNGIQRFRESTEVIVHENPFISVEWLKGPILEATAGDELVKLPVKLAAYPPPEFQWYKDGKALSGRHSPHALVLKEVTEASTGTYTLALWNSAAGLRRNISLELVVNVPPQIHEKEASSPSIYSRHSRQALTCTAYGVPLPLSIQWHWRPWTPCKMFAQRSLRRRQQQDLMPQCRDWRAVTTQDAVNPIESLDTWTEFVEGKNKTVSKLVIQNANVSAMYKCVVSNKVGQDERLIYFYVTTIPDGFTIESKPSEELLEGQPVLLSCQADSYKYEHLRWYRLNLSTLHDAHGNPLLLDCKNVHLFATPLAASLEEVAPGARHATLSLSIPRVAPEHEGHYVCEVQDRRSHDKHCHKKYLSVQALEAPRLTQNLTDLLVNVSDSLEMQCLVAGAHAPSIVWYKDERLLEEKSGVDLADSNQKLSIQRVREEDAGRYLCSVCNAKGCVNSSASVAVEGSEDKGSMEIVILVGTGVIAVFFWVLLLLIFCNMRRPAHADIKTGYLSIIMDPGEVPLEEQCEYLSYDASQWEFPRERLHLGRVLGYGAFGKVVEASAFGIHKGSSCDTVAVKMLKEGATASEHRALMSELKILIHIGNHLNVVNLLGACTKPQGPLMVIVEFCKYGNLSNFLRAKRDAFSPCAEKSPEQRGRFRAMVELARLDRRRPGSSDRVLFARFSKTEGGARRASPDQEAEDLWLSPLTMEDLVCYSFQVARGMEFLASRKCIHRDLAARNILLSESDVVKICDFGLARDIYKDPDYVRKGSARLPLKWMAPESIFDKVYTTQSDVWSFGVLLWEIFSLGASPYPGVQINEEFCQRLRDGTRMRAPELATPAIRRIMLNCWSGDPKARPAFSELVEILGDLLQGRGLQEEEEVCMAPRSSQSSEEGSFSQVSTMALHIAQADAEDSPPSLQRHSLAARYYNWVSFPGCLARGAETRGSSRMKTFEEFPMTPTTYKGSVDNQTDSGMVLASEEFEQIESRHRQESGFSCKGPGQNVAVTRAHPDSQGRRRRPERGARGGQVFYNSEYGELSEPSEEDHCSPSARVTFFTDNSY
T1 sequence (P35968 20-1356): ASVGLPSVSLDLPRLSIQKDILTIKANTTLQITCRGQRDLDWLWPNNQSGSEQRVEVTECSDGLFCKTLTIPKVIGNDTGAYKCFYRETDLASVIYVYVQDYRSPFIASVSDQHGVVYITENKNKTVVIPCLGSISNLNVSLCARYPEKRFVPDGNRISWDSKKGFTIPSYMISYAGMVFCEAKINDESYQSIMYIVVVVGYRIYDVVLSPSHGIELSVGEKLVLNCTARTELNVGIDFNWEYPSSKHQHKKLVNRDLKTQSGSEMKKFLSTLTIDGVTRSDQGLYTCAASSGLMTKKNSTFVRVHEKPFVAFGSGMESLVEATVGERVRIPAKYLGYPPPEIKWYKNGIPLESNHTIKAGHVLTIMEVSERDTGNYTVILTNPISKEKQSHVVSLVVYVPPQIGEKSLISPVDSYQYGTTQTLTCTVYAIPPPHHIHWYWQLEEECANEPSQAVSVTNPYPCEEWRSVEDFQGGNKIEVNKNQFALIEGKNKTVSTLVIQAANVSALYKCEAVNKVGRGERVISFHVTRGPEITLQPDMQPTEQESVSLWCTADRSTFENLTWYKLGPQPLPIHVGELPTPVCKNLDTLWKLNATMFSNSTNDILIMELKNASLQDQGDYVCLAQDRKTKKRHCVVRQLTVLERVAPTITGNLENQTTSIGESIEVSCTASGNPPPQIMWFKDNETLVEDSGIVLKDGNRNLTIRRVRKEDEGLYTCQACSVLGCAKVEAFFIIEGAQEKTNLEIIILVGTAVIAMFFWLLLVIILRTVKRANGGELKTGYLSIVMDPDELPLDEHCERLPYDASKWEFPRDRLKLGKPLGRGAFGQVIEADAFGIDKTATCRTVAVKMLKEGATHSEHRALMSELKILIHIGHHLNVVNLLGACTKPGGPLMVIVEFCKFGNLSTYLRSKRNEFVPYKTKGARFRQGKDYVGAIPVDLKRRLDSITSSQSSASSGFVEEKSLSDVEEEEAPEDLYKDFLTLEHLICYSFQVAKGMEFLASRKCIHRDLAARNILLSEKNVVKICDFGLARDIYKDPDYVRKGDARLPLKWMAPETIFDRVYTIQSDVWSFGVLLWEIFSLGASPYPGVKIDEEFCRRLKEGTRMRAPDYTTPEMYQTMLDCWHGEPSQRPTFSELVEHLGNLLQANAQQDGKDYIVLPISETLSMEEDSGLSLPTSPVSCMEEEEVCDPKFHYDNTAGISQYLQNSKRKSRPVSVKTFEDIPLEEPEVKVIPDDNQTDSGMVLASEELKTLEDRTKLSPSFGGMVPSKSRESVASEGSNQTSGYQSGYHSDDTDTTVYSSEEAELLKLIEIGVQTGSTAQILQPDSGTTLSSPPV
T2 sequence (Q05397 whole entry): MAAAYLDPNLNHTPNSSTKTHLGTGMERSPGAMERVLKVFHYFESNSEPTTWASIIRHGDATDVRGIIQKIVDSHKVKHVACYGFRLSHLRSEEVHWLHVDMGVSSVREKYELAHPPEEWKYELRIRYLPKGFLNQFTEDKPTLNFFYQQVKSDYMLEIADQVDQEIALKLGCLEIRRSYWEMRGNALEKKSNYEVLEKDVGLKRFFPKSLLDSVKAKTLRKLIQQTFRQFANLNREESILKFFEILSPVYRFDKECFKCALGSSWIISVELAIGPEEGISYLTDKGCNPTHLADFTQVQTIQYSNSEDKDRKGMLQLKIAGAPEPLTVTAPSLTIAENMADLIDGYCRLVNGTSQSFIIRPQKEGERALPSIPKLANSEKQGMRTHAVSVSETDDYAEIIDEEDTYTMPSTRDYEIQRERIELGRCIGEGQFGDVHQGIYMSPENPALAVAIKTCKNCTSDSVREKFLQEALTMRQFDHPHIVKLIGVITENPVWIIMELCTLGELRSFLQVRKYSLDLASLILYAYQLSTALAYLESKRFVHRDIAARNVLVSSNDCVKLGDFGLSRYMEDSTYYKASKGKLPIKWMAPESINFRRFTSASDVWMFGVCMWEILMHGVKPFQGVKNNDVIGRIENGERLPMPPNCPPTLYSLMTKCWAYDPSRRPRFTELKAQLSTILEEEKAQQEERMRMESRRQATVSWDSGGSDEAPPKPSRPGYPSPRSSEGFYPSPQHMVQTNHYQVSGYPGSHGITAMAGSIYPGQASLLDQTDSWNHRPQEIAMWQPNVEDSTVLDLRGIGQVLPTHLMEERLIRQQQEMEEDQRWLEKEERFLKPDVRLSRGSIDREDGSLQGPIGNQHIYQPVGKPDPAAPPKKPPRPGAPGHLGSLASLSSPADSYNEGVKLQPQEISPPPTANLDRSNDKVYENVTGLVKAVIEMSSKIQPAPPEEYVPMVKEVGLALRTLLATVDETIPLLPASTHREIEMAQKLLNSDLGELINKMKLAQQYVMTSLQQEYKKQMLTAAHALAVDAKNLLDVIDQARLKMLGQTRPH
Experimental for FAK: 96-well plates (cat#MA6000, Meso Scale Discovery) are coated with 30 μL/well of mouse monoclonal FAK antibody [63D5] (cat#ab72140, Abcam) pre-diluted in PBS to a concentration of 1 mg/mL. The plates are sealed with adhesive film and incubated for 16 hours at 4° C. The antibody is then flicked out of the plates and 150 μL of 3% [w/v] Blocker A (cat#R93AA-1, Meso Scale Discovery) is added. The plates are resealed with adhesive film and incubated at room temperature on a shaker set at medium speed for 2 hours. The plates are then washed three times with a solution containing 50 mM Tris-HCl pH 7.5, 0.15 M NaCl and 0.02% Tween-20, before cell lysate addition described below.
On the day prior to compound treatment, 200 μL media containing 20,000 cells is seeded into all wells of white, clear-bottom, TC treated, pclear, 96-well microtitre plates (cat#655098, Greiner Bio-One), and the plates are incubated at 37° C. and 5% CO2 for 36 hours. 1 μL/well of compound is then added from dilution series prepared in DMSO. Negative control wells receive the same volume of DMSO without compounds, and positive control wells receive 2 μM of a control compound in the same volume of DMSO. Cells are treated for 1 hour at 37° C. and 5% CO2. The media/compounds are then flicked off and 55 μL/well of ice-cold complete lysis buffer is added. […] Plates are incubated on ice for 30 minutes, with 30 seconds high speed plate shaking every 5 minutes. 40 μL/well of cell lysate is transferred to the coated, blocked and washed 96-well microtitre plates described above. The 96-well plates are sealed with adhesive film and incubated for 16 hours at 4° C. The plates are then washed three times with a solution containing 50 mM Tris-HCl pH 7.5, 0.15 M NaCl and 0.02% Tween-20 and tapped dry. […] Plates are then washed three times with a solution containing 50 mM Tris-HCl pH 7.5, 0.15 M NaCl and 0.02% Tween-20 and tapped dry. 150 μL/well of Read Buffer T+Surfactant (cat#R92TC-1, Meso Scale Discovery) is then added, and pFAK-397 levels quantified using a Meso Scale Discovery SECTOR Imager 6000 instrument.
Experimental for VEGFR2: Adult human umbilical vein endothelial cells (HUVEC) (Cat# CC-2519, Lonza) were seeded into clear-bottom, TC treated 12 well plates (Cat #665180, Greiner Bio-One) in EGM-2 (Cat# CC-3162, Lonza) at 180,000 cells/well (volume 1 mL), and the plates incubated at 37° C. and 5% CO2 for 6 hours.
96 well Maxisorp immuno plates (Cat #439454, Nunc) were coated with 100 μL of Total VEGFR2 capture antibody (Part #841434, Human Total VEGFR2/FLT4 ELISA Kit, Cat # DYC1780, R&D Systems), or Phospho VEGFR2 Capture antibody (Part #841419, Human Phospho VEGFR2/FLT4 ELISA Kit, Cat# DYC1766, R&D Systems). The plates were covered and incubated at room temperature overnight.
The coating antibody was flicked out and the plates washed three times with Wash Buffer (Phosphate buffered saline (137 mM NaCl, 2.7 nM KCl, 8.1 nM Na2HPO4, 1.5 mL KH2PO4, pH 7.2-7.4), 0.05% Tween 20). 300 μL of Blocking buffer (1% v/v BSA (Cat# A8412, Sigma) in PBS) was then added to wells and plate incubated for 2 hours at room temperature. Blocking solution is flicked out and plates washed three times and tapped dry.
Compound dilution series were prepared in EBM-2 (Cat # CC-3156, Lonza)+0.1% BSA (Cat# A8412, Sigma) with constant 0.1% DMSO concentration. 427.5 μL of sample or vehicle control was added to the cell monolayers. Cells are treated for 1 hour at 37° C. and 5% CO2. 50 ng/mL Recombinant human VEGF (Cat #293-VC, R & D Systems) added to wells and plates incubated for an additional 10 minutes at 37° C. and 5% CO2.
The media and compounds were removed and the cell monolayer washed once in Dulbecco's Phosphate Buffered Saline (Cat #21600-044, Invitrogen). 130 μL of Lysis buffer added to wells and cell lysate harvested and transferred to tubes and stored on ice. Complete lysis buffer was prepared by adding 10 μL Protease Inhibitor Cocktail (Cat # P8340, Sigma-Aldrich), 10 μL PMSF (Phenylmethanesulfonyl fluoride, Cat # P7626, Sigma-Aldrich, prepared as 500 mM DMSO stock) per 1 mL of Phosphosafe™ Extraction Reagent (Cat #71296, Merck).
The plates were then washed three times in wash buffer as described above and tapped dry.
For detection of Total VEGFR2 100 μL of Detection antibody (Total VEGFR2 Detection Antibody Part#841435 in Total VEGFR2 kit) diluted in IC Diluent #14 (20 mM Tris, 137 mM CaCl2, 0.05% Tween20, 0.1% BSA) was added to wells and the plate incubated for 2 hours at room temperature. The plate was then washed three times in wash buffer and tapped dry. 100 μL of streptavidin-HPR diluted in IC diluent #14 Streptavidin-HRP, Part #890803 in Total VEGFR2 kit) was added to wells and incubated at room temperature for 20 minutes followed by washing as described above. 100 μL Substrate solution (3,3′,5,5′-Tetramethylbenzidine (TMB) Liquid Substrate System for ELISA, Cat # T0440, Sigma-Aldrich) was added and the plate incubated for 20 minutes in the dark at room temperature followed by the addition of 50 μL stop solution (2 M H2SO4).
Total VEGFR2 levels were quantified using a Multiskan Ascent plate reader and Ascent software fitted with 450 nm filter.
For detection of Phospho VEGFR2, 100 μL of Detection antibody (Anti-Phospho-Tyrosine-HRP Detection Antibody, Part #841403 in Phospho VEGFR2 kit) was diluted in IC Diluent 14 (20 mM Tris, 137 mM CaCl2, 0.05% Tween20, 0.1% BSA), was added to the wells and the plate incubated for 2 hours at room temperature. The plate was then washed three times in wash buffer as described above and tapped dry. 100 μL Substrate solution (3,3′,5,5′-Tetramethylbenzidine (TMB) Liquid Substrate System for ELISA, Cat # T0440, Sigma-Aldrich) was added and the plate incubated for 20 minutes in the dark at room temperature followed by the addition of 50 μL stop solution (2 M H2SO4).
Phospho VEGFR2 levels were quantified using a Multiscan ascent plate reader and ascent software fitted with 450 nm filter.
IC50 values are determined by first calculating the level of phospho VEGFR2 relative to Total VEGFR2 according to the following formula:

As for `NC(=O)C1(c2ccccc2CCc2nc(Nc3ccc(C4CNC4)cc3)ncc2C(F)(F)F)CC1` [Compound 4, 1-(2-(2-(2-((4-(azetidin-3-yl)phenyl)amino)-5-(trifluoromethyl)pyrimidin-4-yl)ethyl)phenyl)cyclopropanecarboxamide], the results for the 50% inhibitory concentration (IC50) against VEGFR2 and at FAK were 2040 nM and above 2000 nM, respectively.
`CC(C(N)=O)c1ccccc1CCc1nc(Nc2cnn(C3CCNCC3)c2)ncc1C(F)(F)F` (racemic) [Compound 56, 2-(2-(2-(2-((1-(piperidin-4-yl)-1H-pyrazol-4-yl)amino)-5-(trifluoromethyl)pyrimidin-4-yl)ethyl)phenyl)propanamide] had a half-maximal inhibitory concentration (IC50) against FAK of 517 nM.
The compound `CCC(C(N)=O)c1ccccc1CCc1nc(Nc2ccc(C3CCNCC3)cc2)ncc1C(F)(F)F` (racemic) [Compound 1, 2-(2-(2-(2-((4-(Piperidin-4-yl)phenyl)amino)-5-(trifluoromethyl)pyrimidin-4-yl)ethyl)phenyl)butanamide] yielded a 50% inhibitory concentration (IC50) at FAK of 1180 nM.
Consider `CN1CCC(c2ccc(Nc3ncc(C(F)(F)F)c(CCc4ccccc4C4(C(N)=O)CC4)n3)cc2)CC1` [Compound 3, 1-(2-(2-(2-((4-(1-methylpiperidin-4-yl)phenyl)amino)-5-(trifluoromethyl)pyrimidin-4-yl)ethyl)phenyl)cyclopropanecarboxamide], for which the results for the concentration for half-maximal inhibition (IC50) (against VEGFR3; in experiment [1]; at VEGFR2) were 27 nM, 9 nM and 1790 nM, respectively.
For `NC(=O)C1(c2ccccc2CCc2nc(Nc3cccnc3)ncc2Cl)CC1` [Compound 6, 1-(2-(2-(5-chloro-2-(pyridin-3-ylamino)pyrimidin-4-yl)ethyl)phenyl)cyclopropanecarboxamide], the results for the IC50 (at VEGFR3; in experiment [1]; against VEGFR2) were 17 nM, 8 nM and 6610 nM, respectively.
On to `CC(C(N)=O)c1ccccc1CCc1nc(Nc2cnn(C3CCN(C)CC3)c2)ncc1Cl` (stereo not drawn) [Compound 44, 2-(2-(2-(5-Chloro-2-(1-(1-methylpiperidin-4-yl)-1H-pyrazol-4-ylamino)pyrimidin-4-yl)ethyl)phenyl)propanamide], for which the IC50 against VEGFR3 came to 52 nM; in experiment [1], 9 nM; at VEGFR2 it was 138 nM.
As to `NC(=O)C1(c2ccccc2CCc2nc(Nc3ccc(C(F)(F)F)nc3)ncc2Cl)CC1` [Compound 9, 1-(2-(2-(5-chloro-2-((6-(trifluoromethyl)pyridin-3-yl)amino)pyrimidin-4-yl)ethyl)phenyl)cyclopropanecarboxamide], the half-maximal inhibitory concentration (IC50) on VEGFR3 is 75 nM; in experiment [1] it was 26 nM; against VEGFR2, […].
Take `CN1CCC(n2cc(Nc3ncc(Cl)c(CCc4ccccc4C4(C(N)=O)CC4)n3)cn2)C1` (stereo not drawn) [Compound 21, 1-(2-(2-(5-Chloro-2-(1-(1-methylpyrrolidin-3-yl)-1H-pyrazol-4-ylamino)pyrimidin-4-yl)ethyl)phenyl)cyclopropanecarboxamide]: the 50% inhibitory concentration (IC50) turned out to be 14 nM against VEGFR3, 7 nM in experiment [1] and 73 nM on VEGFR2.
`CC(C(N)=O)c1ccccc1CCc1nc(Nc2cnn(C)c2)ncc1C(F)(F)F` (stereo not drawn) [Compound 55, 2-(2-(2-(2-((1-Methyl-1H-pyrazol-4-yl)amino)-5-(trifluoromethyl)pyrimidin-4-yl)ethyl)phenyl) propanamide]: the IC50 in experiment [1] was determined as 15 nM; at FAK, 115 nM.
Consider `NC(=O)C1(c2ccccc2CCc2nc(Nc3ccc(C4CCNCC4)nc3)ncc2C(F)(F)F)CC1` [Compound 5, 1-(2-(2-(2-((6-(Piperidin-4-yl)pyridin-3-yl)amino)-5-(trifluoromethyl)pyrimidin-4-yl)ethyl)phenyl)cyclopropanecarboxamide], for which the figures for the IC50 (at VEGFR3; in experiment [1]; against VEGFR2) were 51 nM, 28 nM and 4080 nM, respectively.
